Read-outs that look alike come from different tables or passages of the source.
Columns and labels:
KB-3-1 cells = experiment: SRB growth inhibition assay, KB-3-1; type: cell-based; details: Homo sapiens, read-out: IC50 (cytotoxicity)
KB V1 cells = experiment: SRB growth inhibition assay, KB V1; type: cell-based, human; details: for IC50: Homo sapiens, read-out: IC50 (cytotoxicity); for Resistant ratio: IC50 KB V1 / IC50 KB-3-1
HepG2 cells [1] = experiment: SRB growth inhibition assay, HepG2; type: cell-based; details: Homo sapiens, read-out: IC50 (cytotoxicity)
Procedure: (§1) K562, K562-DR, HepG2, HepG2-DR were cultured in RPMI-1640 medium containing 10% fetal bovine serum and 100 U/mL, antibiotics. […] Drug test: […] New calorimetric cytotoxicity assay for anticancer-drug screening. […] Mosmann T. Rapid colorimetric assay for cellular growth and survival: application to proliferation and cytotoxicity assays. […] Gerlier D, Thomasset N. […] Each growth inhibition experiment must be repeated three times and results are expressed as mean±standard deviation (SD). Solvents and media were included as blank control. In SRB assay, cells are inoculated at 5000 cells/well in a 96-well microplate and incubated overnight to let cells adhere. Drug treatment lasts for 72 hours and cells are fixed for 1 hour at 4° C. with 50 μl ice-cold 15% trichloroacetic acid and washed with triple-distilled water 5 times. […] The protein-bound dye is dissolved in 100 μl per well of 10 mM Tris base (pH 10.5). The color intensity of SRB, which positively correlate to cell number in preliminary experiments, is estimated at OD 515 nm.

HepG2-DR cells [2] = experiment: SRB growth inhibition assay, HepG2-DR; type: cell-based, human; details: for IC50: Homo sapiens, 72 h, read-out: IC50 (cytotoxicity); for Resistant ratio: IC50 HepG2-DR / IC50 HepG2
Procedure: as §1

K562 cells = experiment: MTT growth inhibition assay, K562; type: cell-based; details: Homo sapiens
Procedure: (§2) K562, K562-DR, HepG2, HepG2-DR were cultured in RPMI-1640 medium containing 10% fetal bovine serum and 100 U/mL, antibiotics. […] Drug test: […] New calorimetric cytotoxicity assay for anticancer-drug screening. […] Mosmann T. Rapid colorimetric assay for cellular growth and survival: application to proliferation and cytotoxicity assays. […] Gerlier D, Thomasset N. […] Each growth inhibition experiment must be repeated three times and results are expressed as mean±standard deviation (SD). Solvents and media were included as blank control. In MTT assay, cells are inoculated at 5000 cells/well and are incubated overnight. Drug treatment lasts for 68 h. MTT (5 mg/ml in PBS) is added to each well (1:10 dilution). […] Viable cell number is estimated by correlating to OD at 570 nm.

K562-DR cells = experiment: MTT growth inhibition assay, K562-DR; type: cell-based, human; details: for IC50: Homo sapiens, read-out: IC50 (cytotoxicity); for Resistant ratio: IC50 K562-DR / IC50 K562
Procedure: as §2

HepG2 cells [3] = experiment: Cell cycle distribution by flow cytometry, HepG2; type: cell-based, human
Procedure: (§3) 1.2 Instruments: FACSCAN flow cytometry (Becton Dickinson Immunocytometry Systems, San Jose, Calif.), the obtained data were analyzed using the software of Macintosh CellQuest.
(§4) 1.3 Cell lines: HepG2, HepG2-DR.
(§5) 1.4 Drug treatment: HepG2 and HepG2-DR cells were respectively treated with each of cis-DMDCK, cis-DMDBK, trans-DMDCK, trans-DMDBK and doxorubicin for 48 hours, or treated respectively with the combination of doxorubicin and one of cis-DMDCK, cis-DMDBK, trans-DMDCK, trans-DMDBK for 48 hours.
(§6) 1.5 Treatment and detection of sample cells: after washed twice by ice-cold PBS, the cells were fixed with 70% ethanol at −20° C. overnight. The fixed cells were washed by PBS once and resuspended in 1 mL of PBS containing 100 μg/mL RNAase A and incubated at 37° C. for 30 minutes. Finally, propidium iodide solution (final concentration is 40 μg/mL,) was added to bind with DNA and incubated at room temperature for 5-10 minutes. Cells were analyzed by FACSCAN flow cytometry immediately.

HepG2-DR cells [4] = experiment: Cell cycle distribution by flow cytometry (doxorubicin-induced G2/M arrest), HepG2-DR; type: cell-based, human; details: for Cell cycle distribution, G0/G1 / Cell cycle distribution, G2/M / Cell cycle distribution, S / Cell cycle distribution, SubG1: HepG2-DR, 48 h
Procedure: as §3, §4, §5, §6

Pgp-MDR cells = details: Wu et al., Eur J Pharmacol 2003; cited from earlier work
[5] = K562, MTT, (×10^−3), read-out: IC50 (cytotoxicity)

Work on `COc1cccc2c1C(=O)c1c(O)c3c(c(O)c1C2=O)C[C@@](O)(C(=O)CO)C[C@@H]3O[C@H]1C[C@H](N)[C@H](O)[C@H](C)O1` [Doxorubicin, reference compound] yielded an IC50 (KB-3-1 cells; KB-3-1, SRB, 72 h) of 180 ± 40 nM, an IC50 (KB V1 cells; KB V1, SRB, 72 h) of 32000 ± 2740 nM and a Resistant ratio (KB V1 cells) of 178. It also gave an IC50 (HepG2 cells [1]; HepG2, SRB, 72 h) of 170 ± 100 nM, an IC50 (HepG2-DR cells [2]; HepG2-DR, SRB) of 37300 ± 2420 nM and a Resistant ratio (HepG2-DR cells [2]) of 219. For the same molecule, the IC50 (K562 cells; K562, MTT, read-out: IC50 (cytotoxicity)) was 240 ± 80 nM, the IC50 (K562-DR cells; K562-DR, MTT) was 31000 ± 17100 nM and the Resistant ratio (K562-DR cells) was 129. The “Cell cycle distribution, G0/G1” value (HepG2 cells [3]; HepG2, 0.2 μM alone, 48 h) was 4.92 ± 0.91%, the “Cell cycle distribution, G2/M” value (HepG2 cells [3]; HepG2, 0.2 μM alone, 48 h) was 76.57 ± 1.32% and the “Cell cycle distribution, S” value (HepG2 cells [3]; HepG2, 0.2 μM alone, 48 h) was 8.89 ± 0.83%. The “Cell cycle distribution, SubG1” value (HepG2 cells [3]; HepG2, 0.2 μM alone, 48 h) was 0.92 ± 0.45%, the “Concentration achieving almost a complete G2/M arrest” value (HepG2 cells [3]; drug sensitive HepG2 cells) was 0.2 µM and the “Cell cycle distribution, G0/G1” value (HepG2-DR cells [4]; 1 μM alone) was 51.33 ± 0.92%. The “Cell cycle distribution, G2/M” value (HepG2-DR cells [4]; 1 μM alone) was 33.47 ± 0.17%, the “Cell cycle distribution, S” value (HepG2-DR cells [4]; 1 μM alone) was 7.74 ± 3.57% and the “Cell cycle distribution, SubG1” value (HepG2-DR cells [4]; 1 μM alone) was 2.37 ± 0.34%. The “Cell cycle distribution, G0/G1” value (HepG2-DR cells [4]; 10 μM alone) was 24.81 ± 0.23%, the “Cell cycle distribution, G2/M” value (HepG2-DR cells [4]; 10 μM alone) was 60.80 ± 0.79% and the “Cell cycle distribution, S” value (HepG2-DR cells [4]; 10 μM alone) was 6.86 ± 1.80%. For the same molecule, the “Cell cycle distribution, SubG1” value (HepG2-DR cells [4]; 10 μM alone) was 3.37 ± 0.17%, the “Cell cycle distribution, G0/G1” value (HepG2-DR cells [4]; 50 μM alone) was 12.05 ± 5.08% and the “Cell cycle distribution, G2/M” value (HepG2-DR cells [4]; 50 μM alone) was 73.43 ± 9.00%. The “Cell cycle distribution, S” value (HepG2-DR cells [4]; 50 μM alone) was 5.58 ± 1.34%, the “Cell cycle distribution, SubG1” value (HepG2-DR cells [4]; 50 μM alone) was 4.88 ± 0.75% and the “Concentration required for almost a complete G2/M arrest” value (HepG2-DR cells [4]; P-glycoprotein-overexpressing HepG2-DR cells) was “over 50 μM”.

Molecule `COc1ccc(C[C@H](N)C(=O)N[C@H]2[C@@H](O)[C@H](n3cnc4c(N(C)C)ncnc43)O[C@@H]2CO)cc1` [Puromycin] has an IC50 (KB-3-1 cells; KB 3-1, 72 h) of 210 ± 50 nM, an IC50 (KB V1 cells; KB-V1, 72 h) of 79300 ± 8810 nM and a Resistant ratio (KB V1 cells) of 378. It also gave an IC50 (HepG2 cells [1]; HepG2, 72 h) of 170 ± 70 nM, an IC50 (HepG2-DR cells [2]) of 104000 ± 2480 nM and a Resistant ratio (HepG2-DR cells [2]) of 597. For the same molecule, the IC50 (K562 cells; K562, read-out: IC50 (cytotoxicity)) was 390 ± 160 nM, the IC50 (K562-DR cells) was 47700 ± 9000 nM and the Resistant ratio (K562-DR cells) was 122.

Work on `CC[C@]1(O)C[C@@H]2CN(CCc3c([nH]c4ccccc34)[C@@](C(=O)OC)(c3cc4c(cc3OC)N(C)[C@H]3[C@@](O)(C(=O)OC)[C@H](OC(C)=O)[C@]5(CC)C=CCN6CC[C@]43[C@@H]65)C2)C1` [Vinblastine] yielded an IC50 (KB-3-1 cells; KB-3-1, SRB, 72 h, (×10^−3)) of 0.11 ± 0.01 nM, an IC50 (KB V1 cells; KB V1, SRB, 72 h) of 1040 ± 340 nM and a Resistant ratio (KB V1 cells) of 9271. The IC50 (HepG2 cells [1]; HepG2, SRB, 72 h, (×10^−3)) was 0.1 ± 0.01 nM, the IC50 (HepG2-DR cells [2]; HepG2-DR, SRB) was 310 ± 60 nM and the Resistant ratio (HepG2-DR cells [2]) was 3100. The IC50 (K562 cells; [5]) was 0.88 ± 0.25 nM, the IC50 (K562-DR cells; K562-DR, MTT) was 200 ± 70 nM and the Resistant ratio (K562-DR cells) was 227.

For (±)-Praeruptorin A, the “Enhancement of drug sensitivity of Pgp-MDR cells” value (Pgp-MDR cells) is given as “only moderate”.

For `CC(=O)O[C@H]1C(=O)[C@@]2(C)[C@H]([C@H](OC(=O)c3ccccc3)[C@]3(O)C[C@H](OC(=O)[C@H](O)[C@@H](NC(=O)c4ccccc4)c4ccccc4)C(C)=C1C3(C)C)[C@]1(OC(C)=O)CO[C@@H]1C[C@@H]2O` [Paclitaxel], the IC50 (KB-3-1 cells; KB-3-1, SRB, 72 h) was 2 ± 1 nM, the IC50 (KB V1 cells; KB V1, SRB, 72 h) was 8000 ± 1480 nM and the Resistant ratio (KB V1 cells) was 4000. For the same molecule, the IC50 (HepG2 cells [1]; HepG2, SRB, 72 h, (×10^−3)) was 6.07 ± 2.61 nM, the IC50 (HepG2-DR cells [2]; HepG2-DR, SRB) was 4230 ± 60 nM and the Resistant ratio (HepG2-DR cells [2]) was 696. For the same molecule, the IC50 (K562 cells; [5]) was 0.6 ± 0.23 nM, the IC50 (K562-DR cells; K562-DR, MTT) was 3250 ± 450 nM and the Resistant ratio (K562-DR cells) was 5417.

From patent publication US20090111836A1, “Angular Pyranocoumarins, Process for Preparation and Uses Thereof” (CITY UNIVERSITY OF HONG KONG, priority 2007, published 2009)
